# Results as given in patent US10953011B2, “Methods of treating virally associated cancers with histone deacetylase inhibitors” (priority 2019, dated 2021).
# Legend:
# HDAC 1-3 = settings: descriptive statement; cited from earlier work
# [1] = system: P3HR1 Burkitt's lymphoma cells; test: Cell death (7AAD) after Nstat, washout, then ganciclovir
# Protocol: P3HR1 Burkitt's lymphoma cells were incubated with DMSO (solvent control) or Nstat for 3 days. After that time cell cultures were washed re-fed with ganciclovir (GCV) for an additional 3 days. All test conditions were run in triplicate. Cell death was measured by 7AAD staining.
# HDAC4 = HDAC4 (Homo sapiens, UniProt P56524); test: in vitro HDAC inhibition assay (fluorescence); format: biochemical; settings: 1 h pre-incubation; 2 μM HDAC Substrate Class 2a; read-out: IC50 (μM) HDAC4
# Chain of HDAC4 (P56524 whole entry): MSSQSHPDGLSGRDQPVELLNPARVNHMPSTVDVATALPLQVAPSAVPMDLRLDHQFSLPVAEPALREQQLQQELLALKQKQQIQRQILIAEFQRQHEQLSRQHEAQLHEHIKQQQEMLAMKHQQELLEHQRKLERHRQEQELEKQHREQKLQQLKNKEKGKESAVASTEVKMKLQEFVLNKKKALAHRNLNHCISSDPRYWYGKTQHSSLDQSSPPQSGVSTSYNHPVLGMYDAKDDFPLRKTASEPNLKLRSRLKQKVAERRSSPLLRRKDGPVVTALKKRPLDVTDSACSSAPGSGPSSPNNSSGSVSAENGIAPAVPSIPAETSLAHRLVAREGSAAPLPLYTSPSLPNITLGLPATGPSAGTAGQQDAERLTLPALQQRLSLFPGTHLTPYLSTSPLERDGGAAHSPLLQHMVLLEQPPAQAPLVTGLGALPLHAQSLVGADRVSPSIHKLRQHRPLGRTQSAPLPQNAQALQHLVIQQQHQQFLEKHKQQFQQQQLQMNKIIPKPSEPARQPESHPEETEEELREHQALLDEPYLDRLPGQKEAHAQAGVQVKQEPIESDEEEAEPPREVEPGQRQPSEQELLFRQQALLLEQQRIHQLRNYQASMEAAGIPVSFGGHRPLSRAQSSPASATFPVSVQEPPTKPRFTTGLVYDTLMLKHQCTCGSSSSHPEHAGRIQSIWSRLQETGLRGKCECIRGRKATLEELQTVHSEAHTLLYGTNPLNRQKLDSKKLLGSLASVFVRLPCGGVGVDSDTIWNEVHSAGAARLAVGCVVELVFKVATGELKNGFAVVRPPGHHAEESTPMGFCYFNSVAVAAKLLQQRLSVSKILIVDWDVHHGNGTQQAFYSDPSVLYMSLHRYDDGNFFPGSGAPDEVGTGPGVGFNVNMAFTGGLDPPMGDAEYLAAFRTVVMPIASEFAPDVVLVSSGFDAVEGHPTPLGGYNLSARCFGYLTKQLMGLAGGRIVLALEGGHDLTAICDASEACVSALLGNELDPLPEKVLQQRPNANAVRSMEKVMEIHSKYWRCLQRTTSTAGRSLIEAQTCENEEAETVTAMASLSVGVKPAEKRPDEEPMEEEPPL
# Protocol: (§1) Briefly, all of the compounds are dissolved in DMSO. A series of dilutions of the compounds were prepared with 10% DMSO in HDAC assay buffer and 5 μl of the dilution was added to a 50 μl reaction so that the final concentration of DMSO is 1% in all of reactions. The compounds were pre-incubated in duplicate at RT for 1 hour in a mixture containing HDAC assay buffer, 5 μg BSA, HDAC enzyme (see Table 7) and a the particular HDACi. After 1 hour, the enzymatic reactions were initiated by the addition of HDAC substrate (BPS Bioscience) to a final concentration of 10 μM or 2 μM. The enzymatic reaction proceeded for 30 minutes at 37° C.
# (§2) HDAC activity assays were performed in duplicates at each concentration. The fluorescent intensity data were analyzed using the computer software, Graphpad Prism. In the absence of the compound, the fluorescent intensity (Ft) in each data set was defined as 100% activity. In the absence of HDAC, the fluorescent intensity (Fb) in each data set was defined as 0% activity. The percent activity in the presence of each compound was calculated according to the following equation: % activity=(F−Fb)/(Ft−Fb), where F=the fluorescent intensity in the presence of the compound.
# (§3) The values of % activity versus a series of compound concentrations were then plotted using non-linear regression analysis of Sigmoidal dose-response curve generated with the equation Y=B+(T−B)/1+10^((Log EC50-X)×Hill Slope), where Y=percent activity, B=minimum percent activity, T=maximum percent activity, X=logarithm of compound and Hill Slope=slope factor or Hill coefficient. The IC50 value was determined by the concentration causing a half-maximal percent activity.
# HDAC7 = biological target: T1, HDAC7 (Homo sapiens, UniProt Q8WUI4); test: in vitro HDAC inhibition assay (fluorescence); format: biochemical; settings: 1 h pre-incubation; 2 μM HDAC Substrate Class 2a; read-out: IC50 (μM) HDAC7
# T1 sequence (Q8WUI4 1-952): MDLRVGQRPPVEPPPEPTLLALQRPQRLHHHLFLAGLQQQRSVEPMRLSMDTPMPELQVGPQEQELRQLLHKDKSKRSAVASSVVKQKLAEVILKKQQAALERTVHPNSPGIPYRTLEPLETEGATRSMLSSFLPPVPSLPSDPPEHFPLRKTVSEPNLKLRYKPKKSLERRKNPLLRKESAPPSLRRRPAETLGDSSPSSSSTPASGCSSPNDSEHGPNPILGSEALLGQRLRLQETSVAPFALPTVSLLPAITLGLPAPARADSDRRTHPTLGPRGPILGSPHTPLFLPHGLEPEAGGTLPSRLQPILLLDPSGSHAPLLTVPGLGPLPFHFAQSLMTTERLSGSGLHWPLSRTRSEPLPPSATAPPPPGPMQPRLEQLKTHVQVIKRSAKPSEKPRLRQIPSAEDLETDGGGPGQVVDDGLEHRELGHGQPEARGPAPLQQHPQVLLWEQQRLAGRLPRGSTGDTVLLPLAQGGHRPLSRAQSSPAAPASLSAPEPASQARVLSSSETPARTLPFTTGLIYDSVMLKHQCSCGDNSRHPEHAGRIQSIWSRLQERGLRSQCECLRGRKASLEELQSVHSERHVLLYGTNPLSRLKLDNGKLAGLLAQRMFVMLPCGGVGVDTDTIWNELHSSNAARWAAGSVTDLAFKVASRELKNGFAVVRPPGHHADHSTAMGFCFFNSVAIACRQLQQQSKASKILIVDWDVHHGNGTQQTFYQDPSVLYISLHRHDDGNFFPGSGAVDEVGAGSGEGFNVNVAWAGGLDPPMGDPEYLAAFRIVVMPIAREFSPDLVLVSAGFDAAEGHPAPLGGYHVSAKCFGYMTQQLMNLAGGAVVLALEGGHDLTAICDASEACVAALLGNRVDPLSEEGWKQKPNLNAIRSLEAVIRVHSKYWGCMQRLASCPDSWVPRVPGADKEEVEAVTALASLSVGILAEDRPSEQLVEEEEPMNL
# Protocol: as §1, §2, §3
# HDAC11 = biological target: T2, HDAC11 (Homo sapiens, UniProt Q96DB2); test: in vitro HDAC inhibition assay (fluorescence); format: biochemical; settings: 1 h pre-incubation; 2 μM HDAC Substrate Class 2a; read-out: IC50 (μM) HDAC11
# T2 sequence (Q96DB2 1-347): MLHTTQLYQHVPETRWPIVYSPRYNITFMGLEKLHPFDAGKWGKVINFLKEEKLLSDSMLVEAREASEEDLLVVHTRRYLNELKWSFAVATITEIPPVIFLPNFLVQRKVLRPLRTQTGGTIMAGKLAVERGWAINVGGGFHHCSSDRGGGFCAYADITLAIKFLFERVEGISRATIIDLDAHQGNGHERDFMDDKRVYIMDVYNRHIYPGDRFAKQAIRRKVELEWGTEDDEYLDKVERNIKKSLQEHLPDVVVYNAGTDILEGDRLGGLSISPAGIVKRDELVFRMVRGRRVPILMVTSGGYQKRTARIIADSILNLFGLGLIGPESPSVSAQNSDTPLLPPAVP
# Protocol: as §1, §2, §3
# HDAC5 = HDAC5 (Homo sapiens, UniProt Q9UQL6); test: in vitro HDAC inhibition assay (fluorescence); format: biochemical; settings: 1 h pre-incubation; 2 μM HDAC Substrate Class 2a; read-out: IC50 (μM) HDAC5
# Chain of HDAC5 (Q9UQL6 whole entry): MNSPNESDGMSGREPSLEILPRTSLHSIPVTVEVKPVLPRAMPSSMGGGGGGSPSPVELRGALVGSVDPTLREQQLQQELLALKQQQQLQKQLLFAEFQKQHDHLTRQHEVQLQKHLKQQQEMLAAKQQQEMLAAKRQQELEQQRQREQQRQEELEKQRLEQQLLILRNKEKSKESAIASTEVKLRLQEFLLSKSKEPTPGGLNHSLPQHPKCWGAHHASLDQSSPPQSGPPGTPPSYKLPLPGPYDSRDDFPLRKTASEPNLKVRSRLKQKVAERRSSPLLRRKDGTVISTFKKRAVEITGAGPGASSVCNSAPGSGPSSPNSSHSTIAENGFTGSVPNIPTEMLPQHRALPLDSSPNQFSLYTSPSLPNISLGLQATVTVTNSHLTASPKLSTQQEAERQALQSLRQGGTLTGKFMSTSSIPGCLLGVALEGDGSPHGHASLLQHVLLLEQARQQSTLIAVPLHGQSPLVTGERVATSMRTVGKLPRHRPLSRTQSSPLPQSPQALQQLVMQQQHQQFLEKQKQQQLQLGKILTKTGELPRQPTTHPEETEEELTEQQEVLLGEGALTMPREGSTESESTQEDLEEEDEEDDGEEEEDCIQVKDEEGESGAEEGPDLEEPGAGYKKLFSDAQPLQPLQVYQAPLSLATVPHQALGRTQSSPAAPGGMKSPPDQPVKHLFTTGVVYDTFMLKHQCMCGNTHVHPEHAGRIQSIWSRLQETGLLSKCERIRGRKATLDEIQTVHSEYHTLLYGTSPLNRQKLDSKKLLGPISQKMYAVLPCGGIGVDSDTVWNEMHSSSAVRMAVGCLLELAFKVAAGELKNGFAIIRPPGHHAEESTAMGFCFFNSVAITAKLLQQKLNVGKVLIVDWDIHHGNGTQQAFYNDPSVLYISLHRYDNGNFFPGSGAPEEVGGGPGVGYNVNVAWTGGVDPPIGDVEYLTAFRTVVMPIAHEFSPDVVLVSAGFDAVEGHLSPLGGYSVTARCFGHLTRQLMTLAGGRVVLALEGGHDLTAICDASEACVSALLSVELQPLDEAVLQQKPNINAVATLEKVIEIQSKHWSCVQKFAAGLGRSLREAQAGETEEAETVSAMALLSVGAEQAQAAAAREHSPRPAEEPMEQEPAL
# Protocol: as §1, §2, §3
# HDAC9 = HDAC9 (Homo sapiens, UniProt Q9UKV0); test: in vitro HDAC inhibition assay (fluorescence); format: biochemical; settings: 1 h pre-incubation; 2 μM HDAC Substrate Class 2a; read-out: IC50 (μM) HDAC9
# Chain of HDAC9 (Q9UKV0 whole entry): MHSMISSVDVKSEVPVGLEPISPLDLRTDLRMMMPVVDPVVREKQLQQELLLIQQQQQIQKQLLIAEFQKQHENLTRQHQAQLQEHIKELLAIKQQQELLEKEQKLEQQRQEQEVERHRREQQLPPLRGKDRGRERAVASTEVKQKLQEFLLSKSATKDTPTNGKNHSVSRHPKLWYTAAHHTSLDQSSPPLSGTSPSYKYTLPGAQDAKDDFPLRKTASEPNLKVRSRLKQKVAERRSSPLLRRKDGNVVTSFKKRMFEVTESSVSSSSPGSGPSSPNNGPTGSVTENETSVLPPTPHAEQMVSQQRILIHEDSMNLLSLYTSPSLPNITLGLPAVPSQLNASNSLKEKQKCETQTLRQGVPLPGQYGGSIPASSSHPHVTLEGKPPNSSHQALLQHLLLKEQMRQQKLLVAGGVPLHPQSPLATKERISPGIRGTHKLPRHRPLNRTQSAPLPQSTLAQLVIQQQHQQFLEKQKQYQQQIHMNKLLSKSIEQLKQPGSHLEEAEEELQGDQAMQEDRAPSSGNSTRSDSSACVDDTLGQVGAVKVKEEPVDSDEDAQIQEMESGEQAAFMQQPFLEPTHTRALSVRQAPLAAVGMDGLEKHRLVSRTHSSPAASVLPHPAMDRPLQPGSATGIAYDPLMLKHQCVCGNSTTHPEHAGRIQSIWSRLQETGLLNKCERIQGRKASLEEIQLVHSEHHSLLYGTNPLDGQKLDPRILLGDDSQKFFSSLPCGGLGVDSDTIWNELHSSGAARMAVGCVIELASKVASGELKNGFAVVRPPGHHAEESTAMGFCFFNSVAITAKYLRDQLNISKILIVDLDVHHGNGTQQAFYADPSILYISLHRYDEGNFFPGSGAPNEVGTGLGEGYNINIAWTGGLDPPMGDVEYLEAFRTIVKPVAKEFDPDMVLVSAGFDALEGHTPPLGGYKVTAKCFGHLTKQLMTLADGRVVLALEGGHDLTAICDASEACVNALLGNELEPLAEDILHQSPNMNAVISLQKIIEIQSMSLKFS
# Protocol: as §1, §2, §3
smiles,measurement,setting,value
"O=C(NO)c1cnc(N2C[C@@H]3[C@H](C2)[C@H]3NCc2ccc3cc(F)ccc3n2)nc1 [Nanatinostat, 2-((1R,5S,6s)-6-(((6-fluoroquinolin-2-yl)methyl)amino)-3-azabicyclo[3.1.0]hexan-3-yl)-N-hydroxypyrimidine-5-carboxamide]",Activity against HDAC 1-3,HDAC 1-3,active against HDAC 1-3
same,Increase of cytotoxic activity when combined with Ganciclovir,[1],~40%
same,Cell cytotoxicity when combined with ganciclovir,"[1]; EBV infected cell line, seen even after Nstat removal",increases cell cytotoxicity
same,IC50,HDAC4,1 µM
same,IC50,HDAC7,1.6 µM
same,IC50,HDAC11,2.8 µM
same,IC50,HDAC5,0.39 µM
same,IC50,HDAC9,0.44 µM
